In patent US6372740B1, “2-aryl-8-oxodihydropurine derivative, process for the producing the same, medicinal compositions containing the same, and intermediates thereof” (Dainippon Pharmaceutical Co., Ltd., priority 1997, dated 2002):

Key:
BZω3 receptor = molecular target: T1, BZω3 receptor (Rattus norvegicus, UniProt P16257); assay: BZω3 (peripheral) benzodiazepine receptor binding assay, [3H] 4'-chlorodiazepam (Ro 5-4864); details: rat kidney membrane, [3H] Ro 5-4864 0.5 nM, 150 minutes at 0° C.; read-out: ω3 IC50
T1 construct: from tissue; host or cells: rat (Wistar) kidney membrane fraction
Method: Experiment 1: Central (ω1,ω2) and Peripheral (ω3) Benzodiazepine Receptor Binding Assays
BZω1 and BZω2 receptor binding assays and the preparation of receptor membrane fractions therefor were carried out according to the method of Stephens, D. N. et al. [cf., J. Pharmacol. Exp. Ther., 253, 334-343 (1990)], and BZω3 receptor binding assay and the preparation of receptor membrane fraction therefor were done according to the method of Schoemaker, H. [cf, J. Pharmacol. Exp. Ther., 225, 61-69 (1983)] each with slight modification.
Receptor membrane fractions for ω1, ω2 and ω3 were prepared from the cerebellum (ω1), spinal cord (ω2) or kidney (ω3) in 7-8 week old male rats of Wistar strain, respectively, by the procedure described below.
After the cerebellum or spinal cord was homogenized with 20 volumes of ice-cold 50 mM Tris-citrate buffer (pH 7.1), the homogenate was centrifuged for 15 minutes at 40,000 g. The pellet obtained was washed 4 times by the same procedure, and frozen and stored for 24 hours at −60° C. The resulting pellet, after being thawed, washed with the buffer and centrifuged, was suspended in the buffer I for the binding assay (50 mM Tris-HCl buffer containing 120 mM NaCl, 5 mM KCl, 2 mM CaCl2 and 1 mM MgCl2; pH 7.4) and the suspension thus obtained (containing 1 g wet tissue/40 ml) was used for the BZω1 and BZω2receptor binding assays. On the other hand, the kidney was homogenized with 20 volumes of the ice-cold buffer II for the binding assay (50 mM Na-K phosphate buffer containing 100 mM NaCl; pH 7.4), and the mixture was filtered through 4 sheets of gauze, and centrifuged for 20 minutes at 40,000 g. The pellet obtained was suspended in the buffer II and the suspension (containing 1 g wet tissue/100 ml) was used for the binding assay as BZω3 receptor membrane source.
[^3H] Flumazenil (Ro 15-1788) (final concentration: 0.3 nM for ω1, and 1 nM for ω2) and flunitrazepam (final concentration: 10 μM) were used for the BZω1 or BZω2 receptor binding assays as the isotope-labeled and unlabeled ligands, respectively. For the BZω3 receptor binding assay, [^3H] 4′-chlorodiazepam (7-chloro-1,3-dihydro-1-methyl-5-(4-chlorophenyl)-2H-1,4-diazepin-2-one) (Ro 5-4864) (final concentration: 0.5 nM) and diazepam (final concentration: 100 μM) were used as the isotope-labeled and unlabeled ligands, respectively. Incubation was performed for 30 minutes at 37° C. in the BZω1 or BZω2 receptor binding assays, and for 150 minutes at 0° C. in the BZω3 receptor binding assay. The BZω1 or BZω2 receptor binding assays were carried out in the presence of bicuculline (final concentration: 100 μM).
The binding assay was performed by the following procedure. After adding each test compound at certain known concentrations, a [^3H] ligand, and the buffer I or II to each test tube, each assay was started by addition of membrane preparation (total volume of 1 ml). After incubation, the assay was terminated by filtration with suction through a Whatman GF/B glass fiber filter using a cell harvester (Brandel, USA). The filters were rapidly washed 3 times with 5 ml of ice-cold 50 mM Tris-HCl buffer (pH 7.7) for ω1 and ω2, or the buffer II for ω3, and transferred to scintillation vials containing 10 ml liquid scintillation cocktail (ACS-II, Amersham, USA). After being allowed to stand for a specific period, retained radioactivity was counted by a liquid scintillation spectrometer. Specific binding of [^3H] ligands was calculated as the difference between amounts of radioactivity bound in the presence and absence of excess unlabeled ligands. The concentration of the test compounds causing 50% inhibition of specific binding of the [3H] ligand (IC50) was determined by probit analysis.

[1] = test system: mice (stay in light compartment); assay: Light and dark box test (anti-anxiety effect); assay type: in vivo; details: Mus musculus, po, 0.5 h, male Std-ddY mice, 30 minutes before test, Dunnett test 5%, read-out: Anti-anxiety effect MED (minimum effective dose)
Description: Experiment 2: Light and Dark Box Test (Anti-anxiety Effect)
Anti-anxiety effect of test compounds was examined in a box with light and dark compartments according to the method of Crawley, J. and Goodwin, F. K. [cf., Pharmacol. Biochem. Behav., 13, 167-170 (1980)] with slight modification.
Light and dark box test is a useful, simple and handy method for behaviorally and pharmacologically examining anti-anxiety effect of the drugs, by utilizing the habit of rodents such as mice and rats, etc. which prefer to stay in a dark place, and regarding as positive drug effect the increase of the relative stay of the animals in the light compartment which is an uncomfortable place for the animals. A number of drugs such as cholecystokinin B type receptor antagonists and benzodiazepine drugs, show positive effect in this test.
Light and dark box test was carried out using the test box device (35×17×15 cm) which comprises: a light compartment (20×17×15 cm) consisting of transparent acrylic plates and highly illuminated by an incandescent lamp (1,700 lux); a dark compartment (15×17×15 cm) being made of black acrylic plates connected to the light compartment; and at the boundary of compartments, an opening (4.4×5.0 cm) in which mice can go through freely between two compartments.
Male mice of Std-ddY strain weighing 25-30 g were used in a group of 10. Each trial was started by placing a mouse in the center of the light compartment 30 minutes after oral administration of a test compound, and the time spent by the mouse in the light compartment during a 5 minute observation period was measured, and the rate of the stay of mice in the light compartment to the whole time spent in the experiment was calculated (rate of light compartment stay, %).
The anti-anxiety effect of the test compound was represented by the minimum effective dose (MED) at which the increasing rate of the relative stay in the light compartment was regarded as statistically significant (Dunnett test, significance level: 5%). 4.

| IC50 (BZω3 receptor) | melting point | Compound | minimal effective dose [1] |
| --- | --- | --- | --- |
| 2.1 nM | 158 to 159 °C | CCCN(CCC)C(=O)Cn1c(=O)n(CC)c2cnc(-c3ccc(Cl)cc3)nc21 [Example 116] | 10 µg/kg |
| 0.43 nM | 198 to 199 °C | CN(Cc1ccccc1F)C(=O)Cn1c(=O)n(C)c2nc(-c3ccccc3)ncc21 [Example 71] | – |
| 1.4 nM | 210 to 211 °C | CN(Cc1ccccc1)C(=O)Cn1c(=O)n(C)c2nc(-c3ccc(Cl)cc3)ncc21 [Example 49] | – |
| 1.3 nM | 144 to 145 °C | CCN(Cc1cccc(F)c1)C(=O)Cn1c(=O)n(C)c2nc(-c3ccccc3)ncc21 [Example 75] | – |
| 2.7 nM | 216 to 218 °C | CCN(Cc1ccccc1)C(=O)Cn1c(=O)[nH]c2cnc(-c3ccc(OC)cc3)nc21 [Example 94] | – |
| 0.67 nM | 202 to 203 °C | CN(C(=O)Cn1c(=O)n(C)c2cnc(-c3ccccc3)nc21)c1ccccc1 [Example 156] | – |
| 3.5 nM | 199 to 200 °C | CCn1c(=O)n(CC(=O)N(C)c2ccccc2)c2nc(-c3cccnc3)ncc21 [Example 172] | – |
| 1.6 nM | 188 to 190 °C | CN(C(=O)Cn1c(=O)n(C)c2nc(-c3ccc(Cl)cc3)ncc21)c1ccccc1 [Example 4] | – |
| 4.5 nM | 154 to 155 °C | CCCN(CCC)C(=O)Cn1c(=O)n(C)c2nc(-c3ccc(F)cc3)ncc21 [Example 29] | – |
| 2 nM | 176 to 178 °C | COc1ccc(-c2ncc3c(n2)n(C)c(=O)n3CC(=O)N(C)c2ccccc2)cc1 [Example 6] | – |
| 0.83 nM | 112 to 115 °C | CCN(Cc1ccccc1)C(=O)Cn1c(=O)n(C)c2nc(-c3ccccc3)ncc21 [Example 54] | – |
| 1.5 nM | 211 to 212 °C | CCN(C(=O)Cn1c(=O)n(C)c2nc(-c3ccc(F)cc3)ncc21)c1ccccc1 [Example 12, N-ethyl-8,9-dihydro-2-(4-fluorophenyl)-9-methyl-8-oxo-N-phenyl-7H-purin-7-acetamide] | 10 µg/kg |
| 0.8 nM | 237 to 238 °C | CCN(C(=O)Cn1c(=O)[nH]c2cnc(-c3ccccc3)nc21)c1ccccc1 [Example 103] | – |
| 0.73 nM | 172 to 174 °C | COc1ccc(N(C)C(=O)Cn2c(=O)n(C)c3cnc(-c4ccccc4)nc32)cc1 [Example 163] | 100 µg/kg |
| 1.1 nM | 205 to 207 °C | CCn1c(=O)n(CC(=O)N(C)c2cccc(Cl)c2)c2nc(-c3ccccc3)ncc21 [Example 161] | – |
| 0.97 nM | 140 to 141 °C | CCCN(CCC)C(=O)Cn1c(=O)n(C)c2cnc(-c3ccc(F)cc3)nc21 [Example 113] | – |
| 1.1 nM | 172 to 173 °C | CCN(Cc1ccccc1)C(=O)Cn1c(=O)n(C)c2cnc(-c3ccc(Cl)cc3)nc21 [Example 147, N-benzyl-N-ethyl-7,8-dihydro-7-methyl-8-oxo-2-(4-chlorophenyl)-9H-purin-9-acetamide] | 1 to 3 µg/kg |

| IC50 (BZω3 receptor) | melting point | Compound | minimal effective dose [1] |
| --- | --- | --- | --- |
| 2.9 nM | 179 to 181 °C | CCN(C(=O)Cn1c(=O)n(C)c2nc(-c3ccc(OC)cc3)ncc21)c1ccccc1 [Example 13] | – |
| 1.4 nM | 234 to 236 °C | CN(C(=O)Cn1c(=O)[nH]c2cnc(-c3ccccc3)nc21)c1cccc(Cl)c1 [Example 99] | – |
| 1.2 nM | 147 to 148 °C | CN(C(=O)Cn1c(=O)n(C)c2nc(-c3ccccc3)ncc21)c1ccccc1 [Example 2, 8,9-dihydro-9-methyl-N-methyl-8-oxo-2-phenyl-N-phenyl-7H-purin-7-acetamide] | 1 to 3 µg/kg |
| 1.3 nM | 241 to 242 °C | CN(Cc1ccccc1)C(=O)Cn1c(=O)n(C)c2cnc(-c3ccc(Cl)cc3)nc21 [Example 137, N-benzyl-7,8-dihydro-N-methyl-7-methyl-8-oxo-2-(4-chlorophenyl)-9H-purin-9-acetamide] | 1 to 3 µg/kg |
| 1.3 nM | 169 to 170 °C | CN(C(=O)Cn1c(=O)n(C)c2nc(-c3ccc(F)cc3)ncc21)c1ccccc1 [Example 5, 8,9-dihydro-2-(4-fluorophenyl)-9-methyl-N-methyl-8-oxo-N-phenyl-7H-purin-7-acetamide] | 1 to 3 µg/kg |
| 1.8 nM | 151 to 152 °C | CCCN(C(=O)Cn1c(=O)n(CC)c2cnc(-c3ccccc3)nc21)c1ccccc1 [Example 170] | – |
| 2.3 nM | 157 to 158 °C | CCN(Cc1ccccc1)C(=O)Cn1c(=O)n(CC)c2cnc(-c3ccc(Cl)cc3)nc21 [Example 151] | – |
| 1 nM | 195 to 196 °C | CCN(C(=O)Cn1c(=O)n(C)c2nc(-c3cccc(Cl)c3)ncc21)c1ccccc1 [Example 10] | – |
| 1.7 nM | 174 to 176 °C | COc1ccc(CN(C)C(=O)Cn2c(=O)n(C)c3nc(-c4ccccc4)ncc32)cc1 [Example 73] | – |
| 0.79 nM | 170 to 171 °C | CN(Cc1ccccc1)C(=O)Cn1c(=O)n(C)c2nc(-c3ccc(F)cc3)ncc21 [Example 50] | 100 µg/kg |
| 1.4 nM | 155 to 157 °C | CCN(Cc1ccccc1)C(=O)Cn1c(=O)n(C)c2nc(-c3ccc(F)cc3)ncc21 [Example 56] | – |
| 1.6 nM | 226 to 228 °C | CCN(C(=O)Cn1c(=O)n(C)c2nc(-c3ccsc3)ncc21)c1ccccc1 [Example 40] | – |
| 1.1 nM | 173 to 175 °C | CCn1c(=O)n(CC(=O)N(C)c2ccc(Cl)cc2)c2nc(-c3ccccc3)ncc21 [Example 162] | – |
| 1.2 nM | 180 to 181 °C | CCN(C(=O)Cn1c(=O)n(C)c2cnc(-c3ccccc3)nc21)c1ccccc1 [Example 166] | – |
| 1.3 nM | 238 to 240 °C | COc1ccc(N(C)C(=O)Cn2c(=O)[nH]c3cnc(-c4ccccc4)nc32)cc1 [Example 101] | – |
| 2.3 nM | 133 to 134 °C | CCCN(CCC)C(=O)Cn1c(=O)n(C)c2nc(-c3ccccc3)ncc21 [Example 26] | – |
